Assays:
Test in all cases: relative viability (nuclei count vs DMSO), 5 days (fraction); higher = more cells survive
[1] = compound: CN1CCC(CNc2ccc3ncc(-c4cccc(OC(F)(F)F)c4)n3n2)CC1 [SGI-1776] + N=C(N)NC(=N)NCCc1ccccc1 [Phenformin] (partner 250 µM)
How it was run: (§1)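 One day after seeding in 1536-well plates, lung cancer cell lines were dosed by pin tool. Dosing was either single-drug or a fixed anchor-drug dose plus five library-drug doses (not always all listed) in √10 steps. After 5 days, nuclei were stained in one fix-and-stain step and counted on 4× images, and relative viability is the nuclei count of treated wells over that of vehicle wells, given as the median of duplicate plates.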

[2] = compound: C1COCCN1C2=NC(=NC3=C2OC4=C3C=CC=N4)C5=CC(=CC=C5)NC(=O)C6=CN=C(C=C6)N + Cc1cc(Nc2cc(N3CCN(C)CC3)nc(Sc3ccc(NC(=O)C4CC4)cc3)n2)n[nH]1 [Tozasertib] (partner 0.1 µM)
How it was run: as §1

[3] = compound: CN1CCC(CNc2ccc3ncc(-c4cccc(OC(F)(F)F)c4)n3n2)CC1 [SGI-1776] + Nc1ncn([C@H]2C[C@H](O)[C@@H](CO)O2)c(=O)n1 [Decitabine] (partner 2 µM)
How it was run: as §1

[4] = compound: C1COCCN1C2=NC(=NC3=C2OC4=C3C=CC=N4)C5=CC(=CC=C5)NC(=O)C6=CN=C(C=C6)N + CC(C)C[C@H](NC(=O)[C@H](Cc1ccccc1)NC(=O)c1cnccn1)B(O)O [Bortezomib] (partner 0.002 µM)
How it was run: as §1

| Cell Line | relative viability ([1]; first compound 0.08 µM) | relative viability ([1]; first compound 0.8 µM) | relative viability ([1]; first compound 2.53 µM) | relative viability ([1]; first compound 8 µM) | relative viability ([2]; first compound 0.02 µM) | relative viability ([2]; first compound 0.06325 µM) | relative viability ([2]; first compound 0.2 µM) | relative viability ([2]; first compound 0.6325 µM) | relative viability ([2]; first compound 2 µM) | relative viability ([3]; first compound 0.08 µM) | relative viability ([3]; first compound 0.8 µM) | relative viability ([3]; first compound 2.53 µM) | relative viability ([3]; first compound 8 µM) | relative viability ([4]; first compound 0.02 µM) | relative viability ([4]; first compound 0.06325 µM) | relative viability ([4]; first compound 0.2 µM) | relative viability ([4]; first compound 0.6325 µM) | relative viability ([4]; first compound 2 µM) |
| --- | --- | --- | --- | --- | --- | --- | --- | --- | --- | --- | --- | --- | --- | --- | --- | --- | --- | --- |
| NCI-H1666 | 0.615 | 0.544 | 0.527 | 0.502 | 0.614 | 0.615 | 0.588 | 0.513 | 0.501 | 0.8 | 0.737 | 0.729 | 0.663 | 0.781 | 0.902 | 0.735 | 0.588 | 0.486 |
| NCI-H1734 | 0.41 | 0.366 | 0.394 | 0.284 | 0.272 | 0.254 | 0.257 | 0.229 | 0.186 | 0.517 | 0.499 | 0.567 | 0.486 | 1.15 | 1.02 | 0.835 | 0.801 | 0.462 |
| NCI-H1755 | 0.617 | 0.584 | 0.576 | 0.516 | 0.606 | 0.572 | 0.468 | 0.414 | 0.473 | 0.714 | 0.695 | 0.717 | 0.622 | 0.947 | 1.08 | 0.904 | 0.918 | 0.613 |
| NCI-H1915 | 0.37 | 0.368 | 0.382 | 0.357 | 0.439 | 0.492 | 0.392 | 0.408 | 0.264 | 0.271 | 0.258 | 0.268 | 0.221 | 1.07 | 1.08 | 1.03 | 1.02 | 0.423 |
| NCI-H1975 | 0.426 | 0.41 | 0.403 | 0.379 | 0.893 | 0.699 | 0.315 | 0.225 | 0.215 | 0.43 | 0.391 | 0.431 | 0.377 | 0.352 | 0.419 | 0.397 | 0.359 | 0.299 |
| NCI-H1993 | 0.538 | 0.515 | 0.515 | 0.492 | 0.551 | 0.569 | 0.524 | 0.567 | 0.538 | 0.56 | 0.664 | 0.522 | 0.503 | 1.2 | 1.13 | 0.967 | 0.891 | 0.893 |
| NCI-H2009 | 0.407 | 0.394 | 0.381 | 0.3 | 0.8 | 0.749 | 0.726 | 0.655 | 0.433 | 0.388 | 0.374 | 0.36 | 0.342 | 0.977 | 1.11 | 0.969 | 0.977 | 0.727 |
| NCI-H2023 | 0.379 | 0.377 | 0.332 | 0.282 | 0.371 | 0.369 | 0.158 | 0.142 | 0.13 | 0.224 | 0.207 | 0.228 | 0.182 | 0.995 | 1.13 | 0.914 | 0.75 | 0.48 |
| NCI-H2085 | 0.852 | 0.8 | 0.795 | 0.58 | 0.667 | 0.826 | 0.691 | 0.456 | 0.463 | 0.549 | 0.505 | 0.606 | 0.556 | 1.02 | 1.1 | 1.05 | 0.943 | 0.769 |
| NCI-H2087 | 0.444 | 0.394 | 0.432 | 0.44 | 0.249 | 0.265 | 0.202 | 0.258 | 0.209 | 0.331 | 0.26 | 0.278 | 0.215 | 0.802 | 0.889 | 0.854 | 0.862 | 0.361 |
| NCI-H2126 | 0.543 | 0.509 | 0.535 | 0.473 | 0.868 | 0.895 | 0.767 | 0.702 | 0.518 | 0.575 | 0.576 | 0.559 | 0.54 | 1.07 | 1.18 | 1.1 | 1.03 | 0.879 |
| NCI-H2347 | 0.652 | 0.44 | 0.333 | 0.396 | 0.513 | 0.711 | 0.42 | 0.544 | 0.387 | 0.631 | 0.673 | 0.639 | 0.577 | 1.2 | 0.922 | 1.01 | 0.784 | 0.73 |
| NCI-H2405 | 0.384 | 0.304 | 0.215 | 0.227 | 0.762 | 0.75 | 0.715 | 0.73 | 0.607 | 0.715 | 0.683 | 0.716 | 0.64 | 0.995 | 1.02 | 0.973 | 0.947 | 0.902 |
| NCI-H3122 | 0.371 | 0.328 | 0.309 | 0.278 | 0.404 | 0.47 | 0.341 | 0.364 | 0.289 | 0.414 | 0.457 | 0.452 | 0.47 | 0.985 | 1.01 | 1.03 | 1.05 | 0.931 |
| PC-3 [JPC-3] | 0.509 | 0.476 | 0.511 | 0.451 | 0.914 | 0.932 | 0.85 | 0.893 | 0.507 | 0.816 | 0.824 | 0.786 | 0.71 | 0.799 | 0.748 | 0.844 | 0.845 | 0.634 |
| PC-14 | 0.573 | 0.648 | 0.579 | 0.151 | 0.593 | 0.651 | 0.566 | 0.486 | 0.307 | 0.238 | 0.264 | 0.168 | 0.124 | 0.877 | 1.04 | 0.835 | 0.822 | 0.375 |
| RERF-LC-KJ | 0.464 | 0.415 | 0.439 | 0.32 | 0.594 | 0.577 | 0.35 | 0.327 | 0.326 | 0.67 | 0.652 | 0.566 | 0.363 | 1.04 | 1.21 | 1.04 | 1.05 | 0.798 |
| SK-LU-1 | 0.528 | 0.494 | 0.37 | 0.322 | 0.348 | 0.287 | 0.266 | 0.284 | 0.314 | 0.671 | 0.665 | 0.658 | 0.645 | 1.31 | 0.998 | 1.02 | 1.14 | 0.63 |
| SW 1573 | 0.381 | 0.31 | 0.356 | 0.275 | 0.207 | 0.159 | 0.175 | 0.188 | 0.152 | 0.598 | 0.459 | 0.483 | 0.299 | 1.16 | 0.904 | 1.01 | 0.888 | 0.474 |
